Data: publication PMC10552397 (Cell Communication and Signaling : CCS, 2023)
pIC50: −log10 of the molar value. Like-named read-outs stand apart in the source and are kept apart here.

Legend:
SDC4 = molecular target: T1, SDC4 (Homo sapiens, UniProt P31431); test: TPP-TR/RTSA, SDC4; format: binding
T1 construct: endogenous in cells; host or cells: HeLa wt cells
T1 sequence (P31431 19-198): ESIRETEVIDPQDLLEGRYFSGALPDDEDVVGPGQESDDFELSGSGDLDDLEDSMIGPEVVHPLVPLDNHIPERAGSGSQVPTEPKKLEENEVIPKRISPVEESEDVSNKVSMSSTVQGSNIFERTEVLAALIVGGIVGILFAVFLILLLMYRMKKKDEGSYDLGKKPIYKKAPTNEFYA
Experimental: TPP was performed essentially as described, but with major modifications to the TMT labeling sets and statistical data analysis for TPP-TR.
Adherent cells were washed in the dish once with DPBS and harvested by Trypsin–EDTA (0.25%, Thermo Fisher Scientific, Waltham, MA, USA, #25,200,056) treatment. […]
After temperature treatment, samples were supplemented with lysis buffer (final concentrations: 0.36 U/µL benzonase, 1.5 mM MgCl2, 1 mM Na3VO4, 10 mM NaF, 2.5 mM Na4P2O7, 0.8% w/v NP-40) for 1 h on ice. […] The total protein concentration of the resulting cell extracts containing the fraction of soluble, non-denatured proteins was determined (Pierce 660 nm Protein Assay, BSA as standard). […] The two (37 °C or 50 °C) x ten (concentrations) x three (replicates) = 60 TPP-CCR samples and two (treatment and control) x ten (temperatures) x three (replicates) = 60 TPP-TR samples were analyzed by LC–MS/MS. GRASP55 was additionally quantified from the TPP-TR samples by immunoblotting as described in the respective section.
For TPP-CCR, SP3 was performed as described with slight modifications to the original protocol using on average 5 µg total protein per sample and resulting in theoretically 5 µg peptides in 22 µL 50 mM triethylammonium bicarbonate per sample. […] This volume was calculated such that the lowest two temperature samples (36.5 °C and 41.2 °C) contained 10 µg total protein on average. […]

HeLa wt cells = test: MTT cell viability assay, HeLa wt; format: cell-based; conditions: Homo sapiens
Experimental: Cell viability was measured using the MTT (3-(4,5-dimethylthiazol-2-yl)-2,5-diphenyltetrazolium bromide) assay. HeLa cells were seeded in 96-well plates with a density of 5*10^3 cells/well. […] After the incubation time, 20 µL of a 5 mg/mL MTT stock solution (ROTH, Karlsruhe, Germany, #4022.3) were added to the cells and they were incubated at 37 °C and 5% CO2 in a humidified atmosphere for 30 min. Upon removal of the MTT-containing medium 100 µL DMSO per well were added for extraction of the formazan. Absorbance was measured at 570 nm and 650 nm (reference) with a microplate reader (SynergyMx, BioTek, Winooski, VT, USA). After subtraction of the reference value, the mean of the absorbance of the solvent control was set as 100% and the relative viability was calculated for each sample.
All IC50 values were calculated using GraphPad Prism 7.01.

## CCCCCC1=C/C(=C/c2[nH]c(-c3ccc[nH]3)cc2OC)N=C1C [Prodigiosin, prodigiosin]
SDC4; 100 nM vs DMSO, 6 h, HeLa wt, read-out: Mean_dTm
  ΔTm at 0.1 µM: 0.55 °C
SDC4; RTSA distance score
  distancescore: 10.308
HeLa wt cells; 24 h, Fig. 1B, read-out: IC50 (24 h)
  pIC50: 6.16
HeLa wt cells; 24 h, Fig. 5C (independent of Fig. 1B), read-out: IC50 value wt
  pIC50: 6.26
HeLa wt cells; 72 h, Fig. 1B, read-out: IC50 (72 h)
  pIC50: 7.11
HeLa wt cells; 72 h, Fig. 5C (independent of Fig. 1B), read-out: IC50 value wt
  pIC50: 7.19
